According to patent US8912125B2, “Control of trifluralin-resistant weeds with dithiopyr” (Dow AgroSciences, LLC., priority 2010, dated 2014):

Assays:
[1] = test system: ryegrass biotype 1251 (with trifluralin resistance); experiment: Pre-emergence (simulated IBS) pot test, % survival of ryegrass biotype 1251; type: in vivo; conditions: 5 weeks after herbicide application
Experimental: (§1) Five ryegrass biotypes with varying degrees of resistance to trifluralin (1251, 1216.1, 1252.6, 1252.2 and 1145.4) and two non-resistant biotypes (SLR4 and 1261.1) were tested. Dithiopyr was applied using a simulated incorporated by sowing (IBS) system for ryegrass and wheat.
(§2) Ryegrass: A set volume of seeds (50 seeds approx) were placed onto the surface of sandy potting soil in 0.55 L polyethylene pots. Dithiopyr was sprayed directly onto the ryegrass seed soil surface at rates of 250, 500 and 1000 grams active ingredient per hectare (g ai/ha). The seed and soil were then covered with a soil mixture to a depth of 5 mm (the soil mixture included 385 L peatmoss, 615 L coarse sand, 1024 g Ag. lime, 564 g hydrated lime, and 3.7 Kg Osmocote® Exact™ (Everris International B.V.; Geldermalsen, The Netherlands) with a pH of 6.3).
(§3) Herbicide application was performed using a laboratory boom sprayer equipped with T-jet fan nozzles at a speed of 1 ms^−1. Output from the sprayer was calibrated at 110 L ha^−1 at a pressure of 250 kPa. Using this testing procedure, volatilization losses were minimized by the immediate and even incorporation of each herbicide. The experiment was established as a randomized block design with three replications and was conducted outdoors during mid winter (July-August).
(§4) Herbicide effects on wheat and ryegrass seedlings were measured 5 weeks after spraying. Seedlings were considered emerged if they had reached the 2-leaf stage at this time. Survival % was recorded by comparing the surviving number of 2-3 leaved seedlings in the sprayed treatments to the […] (Tables 1 and 2).

[2] = test system: ryegrass biotype 1216.1 (with trifluralin resistance); experiment: Pre-emergence (simulated IBS) pot test, % survival of ryegrass biotype 1216.1; type: in vivo; conditions: 5 weeks after herbicide application
Experimental: as §1, §2, §3, §4

[3] = test system: ryegrass biotype 1261.1 (without trifluralin resistance); experiment: Pre-emergence (simulated IBS) pot test, % survival of ryegrass biotype 1261.1; type: in vivo; conditions: 5 weeks after herbicide application
Experimental: as §1, §2, §3, §4

[4] = test system: ryegrass biotype 1252.2 (with trifluralin resistance); experiment: Pre-emergence (simulated IBS) pot test, % survival of ryegrass biotype 1252.2; type: in vivo; conditions: 5 weeks after herbicide application
Experimental: as §1, §2, §3, §4

Correll wheat = experiment: Crop safety on wheat, pre-emergence (simulated IBS) pot test, % dry weight and % survival; type: in vivo, wheat (var. Correll); conditions: 5 weeks after application
Experimental: as §1
Wheat: Ten wheat seeds (var. Correll) were buried 1 cm deep. The herbicides were sprayed onto the soil surface and then the herbicide covered with another 5 mm of soil. This system of seed separation ensured crop selectivity
as §3, §4
In addition, wheat biomass was recorded by harvesting the plants and measuring dry weight to indicate crop safety. The dry weights from the treated plants were compared to the weight of untreated wheat and the percentage biomass calculated (Table 2).

[5] = test system: ryegrass biotype 1252.6 (with trifluralin resistance); experiment: Pre-emergence (simulated IBS) pot test, % survival of ryegrass biotype 1252.6; type: in vivo; conditions: 5 weeks after herbicide application
Experimental: as §1, §2, §3, §4

[6] = test system: ryegrass biotype SLR4 (without trifluralin resistance); experiment: Pre-emergence (simulated IBS) pot test, % survival of ryegrass biotype SLR4; type: in vivo; conditions: 5 weeks after herbicide application
Experimental: as §1, §2, §3, §4

[7] = test system: ryegrass biotype 1145.4 (with trifluralin resistance); experiment: Pre-emergence (simulated IBS) pot test, % survival of ryegrass biotype 1145.4; type: in vivo; conditions: 5 weeks after herbicide application
Experimental: as §1, §2, §3, §4

SMILES: CSC(=O)c1c(C(F)F)nc(C(F)(F)F)c(C(=O)SC)c1CC(C)C [Dithiopyr, S,S′-dimethyl 2-(difluoromethyl)-4-(2-methylpropyl)-6-(trifluoromethyl)-3,5-pyridinedicarbothioate]
- % survival of ryegrass, Mean ([1]; 250 g ai/ha): 0%
- % survival of ryegrass, Mean ([1]; 500 g ai/ha): 0%
- % survival of ryegrass, Mean ([1]; 1000 g ai/ha): 0%
- % survival of ryegrass, Mean ([2]; 250 g ai/ha): 0%
- % survival of ryegrass, Mean ([2]; 500 g ai/ha): 0%
- % survival of ryegrass, Mean ([2]; 1000 g ai/ha): 0%
- % survival of ryegrass, Mean ([3]; 250 g ai/ha): 0%
- % survival of ryegrass, Mean ([3]; 500 g ai/ha): 0%
- % survival of ryegrass, Mean ([3]; 1000 g ai/ha): 0%
- % survival of ryegrass, Mean ([4]; 250 g ai/ha): 0%
- % survival of ryegrass, Mean ([4]; 500 g ai/ha): 0%
- % survival of ryegrass, Mean ([4]; 1000 g ai/ha): 0%
- Survival (%) Mean (Correll wheat; 250 g ai/ha): 82.2%
- Survival (%) Mean (Correll wheat; 500 g ai/ha): 60.0%
- Survival (%) Mean (Correll wheat; 1000 g ai/ha): 28.9%
- % survival of ryegrass, Mean ([5]; 250 g ai/ha): 0%
- % survival of ryegrass, Mean ([5]; 500 g ai/ha): 0%
- % survival of ryegrass, Mean ([5]; 1000 g ai/ha): 0%
- % survival of ryegrass, Mean ([6]; 250 g ai/ha): 0%
- % survival of ryegrass, Mean ([6]; 500 g ai/ha): 0%
- % survival of ryegrass, Mean ([6]; 1000 g ai/ha): 0%
- % survival of ryegrass, Mean ([7]; 250 g ai/ha): 0%
- % survival of ryegrass, Mean ([7]; 500 g ai/ha): 0%
- % survival of ryegrass, Mean ([7]; 1000 g ai/ha): 0%

SMILES: CCCN(CCC)c1c([N+](=O)[O-])cc(C(F)(F)F)cc1[N+](=O)[O-] [Trifluralin, 2,6-dinitro-N,N-dipropyl-4-(trifluoromethyl)benzenamine]
- % survival of ryegrass, Mean ([1]; 250 g ai/ha): 97.7%
- % survival of ryegrass, Mean ([1]; 500 g ai/ha): 68.2%
- % survival of ryegrass, Mean ([1]; 1000 g ai/ha): 27.3%
- % survival of ryegrass, Mean ([2]; 250 g ai/ha): 40.4%
- % survival of ryegrass, Mean ([2]; 500 g ai/ha): 19.1%
- % survival of ryegrass, Mean ([2]; 1000 g ai/ha): 9%
- % survival of ryegrass, Mean ([3]; 250 g ai/ha): 5.6%
- % survival of ryegrass, Mean ([3]; 500 g ai/ha): 0%
- % survival of ryegrass, Mean ([3]; 1000 g ai/ha): 1.1%
- % survival of ryegrass, Mean ([4]; 250 g ai/ha): 29.1%
- % survival of ryegrass, Mean ([4]; 500 g ai/ha): 13.9%
- % survival of ryegrass, Mean ([4]; 1000 g ai/ha): 3.8%
- % survival of ryegrass, Mean ([5]; 250 g ai/ha): 33.8%
- % survival of ryegrass, Mean ([5]; 500 g ai/ha): 13.1%
- % survival of ryegrass, Mean ([5]; 1000 g ai/ha): 26.3%
- % survival of ryegrass, Mean ([6]; 250 g ai/ha): 2.9%
- % survival of ryegrass, Mean ([6]; 500 g ai/ha): 0%
- % survival of ryegrass, Mean ([6]; 1000 g ai/ha): 0%
- % survival of ryegrass, Mean ([7]; 250 g ai/ha): 100%
- % survival of ryegrass, Mean ([7]; 500 g ai/ha): 100%
- % survival of ryegrass, Mean ([7]; 1000 g ai/ha): 14.1%
